Among the data in patent US20230027985A1, “SUBSTITUTED HYDANTOINAMIDES AS ADAMTS7 ANTAGONISTS” (Bayer Aktiengesellschaft, priority 2019, published 2023) are IC50 values, retold here.

For test [1], the target named is T1, Purified recombinant ADAMTS-7 (rat prodomain/human catalytic domain, SEQ ID No. 01 or 02) (Homo sapiens, UniProt Q9UKP4).
T1 construct: rat ADAMTS-7 signal peptide + prodomain (rat 1-217, Q1EHB3) (N); 2xStrep tag (C); 6xHis tag (C); made in house; host or cells: Expi293 cells
T1 sequence (Q9UKP4 237-537): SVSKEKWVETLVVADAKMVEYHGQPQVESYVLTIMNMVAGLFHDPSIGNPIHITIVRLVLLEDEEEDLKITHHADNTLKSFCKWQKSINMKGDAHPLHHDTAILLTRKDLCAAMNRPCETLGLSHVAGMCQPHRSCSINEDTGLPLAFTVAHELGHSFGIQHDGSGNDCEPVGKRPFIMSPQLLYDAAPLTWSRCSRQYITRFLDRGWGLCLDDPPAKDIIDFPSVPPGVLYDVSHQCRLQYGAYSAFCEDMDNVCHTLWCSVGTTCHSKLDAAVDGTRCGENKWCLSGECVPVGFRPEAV
The experiment in a line: Assay for ADAMTS-7 enzymatic activity (FRET substrate cleavage). The format is biochemical. To be noted: FRET substrate SEQ ID No. 11, 120 min at 32° C.; read-out: ADAMTS7-IC50. Summed up: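 IC50 values were fitted from percent inhibition across test-compound concentrations. Fluorescence gain (ex 485, em 520 nm) reports cleavage of a thrombospondin-1 (275-289) FRET peptide with QXL520 quencher, after 120 min at 32 °C. The enzyme, about 20 nM, was in HEPES pH 8.0 buffer with NaCl, CaCl2, ZnCl2 and Brij.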

A further test deals with T2, ADAMTS4 (Homo sapiens, UniProt O75173).
T2 construct: purchased R&D 4307-AD
T2 sequence (O75173 213-685 limits assumed): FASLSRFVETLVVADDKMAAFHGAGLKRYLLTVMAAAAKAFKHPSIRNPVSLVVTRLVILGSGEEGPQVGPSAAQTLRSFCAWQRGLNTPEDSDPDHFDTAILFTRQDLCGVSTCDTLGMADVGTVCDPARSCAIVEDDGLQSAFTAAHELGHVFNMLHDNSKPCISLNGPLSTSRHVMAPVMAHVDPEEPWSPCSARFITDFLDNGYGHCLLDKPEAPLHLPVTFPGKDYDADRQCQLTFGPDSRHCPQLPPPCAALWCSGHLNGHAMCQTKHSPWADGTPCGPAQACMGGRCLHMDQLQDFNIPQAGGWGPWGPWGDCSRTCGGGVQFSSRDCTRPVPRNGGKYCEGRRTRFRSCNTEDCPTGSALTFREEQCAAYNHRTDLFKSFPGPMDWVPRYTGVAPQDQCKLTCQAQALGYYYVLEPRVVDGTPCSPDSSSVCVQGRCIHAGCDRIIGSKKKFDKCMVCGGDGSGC
Kind of test: Selectivity assay for ADAMTS-7 modulators (FRET), ADAMTS4. In kind it is biochemical. The note with it: 50 nM enzyme (R&D 4307-AD), 1 μM Dabcyl/Edans FRET substrate, 120 min at 32° C. Summed up:
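Enzyme in 50 mM Tris pH 7.5, 150 mM NaCl, 10 mM CaCl2, 0.05% Brij, preincubated with compound in DMSO; reaction started with FRET substrate. Fluorescence increase read after 120 min at 32° C; IC50 from percent inhibition versus compound concentration.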

As for `CC(CO)C1(CNC(=O)c2cnn(-c3ccccc3)n2)NC(=O)NC1=O` (centres unmarked) [Example 57], the IC50 came to 190 nM in test [1] and 17000 nM against ADAMTS4.
Turning to `O=C1NC(=O)[C@](CNC(=O)c2cnc(-c3ccccc3)o2)(C2CC2)N1` [Example 59, N-{[(4R)-4-cyclopropyl-2,5-dioxoimidazolidin-4-yl]methyl}-2-phenyl-1,3-oxazole-5-carboxamide], the 50% inhibitory concentration (IC50) in test [1] was 550 nM; against ADAMTS4, 11300 nM.
The corresponding values for `O=C1NC(=O)[C@](CNC(=O)c2cnn(-c3ccccn3)n2)(C2CC2)N1` [Example 60, N-{[(4R)-4-cyclopropyl-2,5-dioxoimidazolidin-4-yl]methyl}-2-(pyridin-2-yl)-2H-1,2,3-triazole-4-carboxamide] are 259 nM and 8400 nM.
In the case of `CC(C)C1(CNC(=O)c2cnn(-c3ccccc3)n2)NC(=O)NC1=O` (stereo not drawn) [Example 70, ent-N-[(2,5-dioxo-4-(propan-2-yl)imidazolidin-4-yl)methyl]-2-phenyl-2H-1,2,3-triazole-4-carboxamide], the IC50 in test [1] was 76 nM; at ADAMTS4, 10000 nM.
Regarding `CC(C)(C)C1(CNC(=O)c2cnn(-c3ccccc3)n2)NC(=O)NC1=O` (stereo not drawn) [Example 71, ent-N-[(4-tert-butyl-2,5-dioxoimidazolidin-4-yl)methyl]-2-phenyl-2H-1,2,3-triazole-4-carboxamide], the IC50 in test [1] is 47 nM; against ADAMTS4, 13100 nM.
In the case of `O=C1NC(=O)C(CNC(=O)c2cnn(-c3ccc(F)cc3)n2)(CC2CC2)N1` (stereo not drawn) [Example 72, ent-N-[(4-(cyclopropylmethyl)-2,5-dioxoimidazolidin-4-yl]methyl]-2-(4-fluorophenyl)-2H-1,2,3-triazole-4-carboxamide], the IC50 in test [1] was 130 nM; against ADAMTS4, 6200 nM.
On the same counts, the results for `CCCC1(CNC(=O)c2cnn(-c3ccc(F)cc3)n2)NC(=O)NC1=O` (stereo not drawn) [Example 73, ent-N-[(2,5-dioxo-4-propylimidazolidin-4-yl)methyl]-2-(4-fluorophenyl)-2H-1,2,3-triazole-4-carboxamide] are 60 nM and 5100 nM.
Regarding `O=C1NC(=O)C(CNC(=O)c2cnn(-c3ccc(F)cc3)n2)(C2CCCC2)N1` (stereo not drawn) [Example 74, ent-N-[(4-cyclopentyl-2,5-dioxoimidazolidin-4-yl)methyl]-2-(4-fluorophenyl)-2H-1,2,3-triazole-4-carboxamide], the IC50 in test [1] came to 33 nM; at ADAMTS4, 5900 nM.
Consider `O=C1NC(=O)C(CNC(=O)c2cnn(-c3ccc(F)cc3)n2)(C2CCCCC2)N1` (stereo not drawn) [Example 75, ent-N-[(4-cyclohexyl-2,5-dioxoimidazolidin-4-yl)methyl]-2-(4-fluorophenyl)-2H-1,2,3-triazole-4-carboxamide], for which the 50% inhibitory concentration (IC50) in test [1] is 14 nM; at ADAMTS4, 4100 nM.
Take `CC(C)C1(CNC(=O)c2cnn(-c3ccc(F)cc3)n2)NC(=O)NC1=O` (stereo not drawn) [Example 76, ent-N-[(2,5-dioxo-4-(propan-2-yl)imidazolidin-4-yl)methyl]-2-(4-fluorophenyl)-2H-1,2,3-triazole-4-carboxamide]: the results for the IC50 (in test [1]; at ADAMTS4) were 8 nM and 2770 nM, respectively.
Regarding `O=C1NC(=O)C(CNC(=O)c2cnn(-c3ccc(F)cc3)n2)(C2CCC2)N1` (stereo not drawn) [Example 77, ent-N-[(4-cyclobutyl-2,5-dioxoimidazolidin-4-yl)methyl]-2-(4-fluorophenyl)-2H-1,2,3-triazole-4-carboxamide], the values for the half-maximal inhibitory concentration (IC50) (in test [1]; at ADAMTS4) were 24 nM and 4380 nM, respectively.
On the same counts, the results for `CCCCC1(CNC(=O)c2cnn(-c3ccccc3)n2)NC(=O)NC1=O` (stereo not drawn) [Example 78, ent-N-[(4-butyl-2,5-dioxoimidazolidin-4-yl)methyl]-2-phenyl-2H-1,2,3-triazole-4-carboxamide] are 191 nM and 19000 nM.
Take `O=C1NC(=O)C(CNC(=O)c2cnn(-c3ccccc3)n2)(C2CCC2)N1` (stereo not drawn) [Example 79, ent-N-[(4-cyclobutyl-2,5-dioxoimidazolidin-4-yl)methyl]-2-phenyl-2H-1,2,3-triazole-4-carboxamide]: the IC50 in test [1] was 78 nM; against ADAMTS4 it was 11000 nM.
For `O=C1NC(=O)C(CNC(=O)c2nc(-c3ccccc3)no2)(CC2CC2)N1` (stereo not drawn) [Example 80, ent-N-[(4-(cyclopropylmethyl)-2,5-dioxoimidazolidin-4-yl)methyl]-3-phenyl-1,2,4-oxadiazole-5-carboxamide], the results for the IC50 (in test [1]; at ADAMTS4) were 250 nM and 2900 nM, respectively.
Regarding `CCCCC1(CNC(=O)c2cnn(-c3ccc(F)cc3)n2)NC(=O)NC1=O` (centres unmarked) [Example 82], the IC50 amounted to 48 nM in test [1] and 3100 nM on ADAMTS4.
Consider `O=C1NC(=O)C(CNC(=O)c2cnn(-c3ccccc3)n2)(C2CCCC2)N1` (stereo not drawn) [Example 83, ent-N-[(4-cyclopentyl-2,5-dioxoimidazolidin-4-yl)methyl]-2-phenyl-2H-1,2,3-triazole-4-carboxamide], for which the IC50 in test [1] was 120 nM; against ADAMTS4, 11000 nM.
In the case of `O=C1NC(=O)C(CNC(=O)c2cnn(-c3ccc(F)cc3F)n2)(C2CCC2)N1` (stereo not drawn) [Example 86, ent-N-{[4-cyclobutyl-2,5-dioxoimidazolidin-4-yl]methyl}-2-(2,4-difluorophenyl)-2H-1,2,3-triazole-4-carboxamide], the IC50 came to 63 nM in test [1] and 8500 nM against ADAMTS4.
Consider `O=C1NC(=O)C(CNC(=O)c2cnn(-c3cc(F)c(F)c(F)c3)n2)(C2CCC2)N1` (stereo not drawn) [Example 90, ent-N-[(4-cyclobutyl-2,5-dioxoimidazolidin-4-yl)methyl]-2-(3,4,5-trifluorophenyl)-2H-1,2,3-triazole-4-carboxamide], for which the IC50 stood at 16 nM in test [1] and 3100 nM at ADAMTS4.
As to `O=C1NC(=O)C(CNC(=O)c2cnn(-c3cccc(F)c3)n2)(C2CCC2)N1` (stereo not drawn) [Example 93, ent-N-[(4-cyclobutyl-2,5-dioxoimidazolidin-4-yl)methyl]-2-(3-fluorophenyl)-2H-1,2,3-triazole-4-carboxamide], the IC50 in test [1] is 8 nM; at ADAMTS4, 2200 nM.
In the case of `O=C1NC(=O)C(CNC(=O)c2cnn(-c3ccc(F)c(F)c3)n2)(C2CCC2)N1` (stereo not drawn) [Example 94, ent-N-[(4-cyclobutyl-2,5-dioxoimidazolidin-4-yl)methyl]-2-(3,4-difluorophenyl)-2H-1,2,3-triazole-4-carboxamide], the IC50 came to 6 nM in test [1] and 890 nM on ADAMTS4.
Turning to `O=C1NC(=O)[C@](CNC(=O)c2cnn(-c3cc(F)c(F)c(F)c3)n2)(C2CC2)N1` [Example 98, N-{[(4R)-4-cyclopropyl-2,5-dioxoimidazolidin-4-yl]methyl}-2-(3,4,5-trifluorophenyl)-2H-1,2,3-triazole-4-carboxamide], the IC50 in test [1] turned out to be 25 nM; at ADAMTS4 it was 1100 nM.
As for `O=C1NC(=O)[C@](CNC(=O)c2cnn(-c3ncccc3F)n2)(C2CC2)N1` [Example 101, N-{[(4R)-4-cyclopropyl-2,5-dioxoimidazolidin-4-yl]methyl}-2-(3-fluoropyridin-2-yl)-2H-1,2,3-triazole-4-carboxamide], the IC50 is 7 nM in test [1] and 14000 nM on ADAMTS4.
The corresponding values for `CCC(C)C1(CNC(=O)c2cnn(-c3ccc(F)cc3)n2)NC(=O)NC1=O` (centres unmarked) [Example 102, diamix-N-[(4-sec-butyl-2,5-dioxoimidazolidin-4-yl)methyl]-2-(4-fluorophenyl)-2H-1,2,3-triazole-4-carboxamide] are 62 nM and 2900 nM.
The corresponding values for `O=C1NC(=O)[C@](CNC(=O)c2cnn(-c3nc4ccccc4s3)n2)(C2CC2)N1` [Example 105, 2-(1,3-benzothiazol-2-yl)-N-{[(4R)-4-cyclopropyl-2,5-dioxoimidazolidin-4-yl]methyl}-2H-1,2,3-triazole-4-carboxamide] are 190 nM and 11000 nM.
On the same counts, the results for `O=C1NC(=O)[C@](CNC(=O)c2cnn(-c3ccc(OC(F)(F)F)cc3)n2)(C2CC2)N1` [Example 106, N-{[(4R)-4-cyclopropyl-2,5-dioxoimidazolidin-4-yl]methyl}-2-[4-(trifluoromethoxy)phenyl]-2H-1,2,3-triazole-4-carboxamide] are 190 nM and above 50000 nM.
